According to patent US20120115896A1, “ISOGENIC HUMAN CELL LINES COMPRISING MUTATED CANCER ALLELES AND PROCESS USING THE CELL LINES” (priority 2008, published 2012):
Several values for one entry are separate records, joined by “and”; a condition that tells them apart may be missing. Equal entries are not always repeated. Where two headings read alike, the source gives them in different places.

Key:
[1] = system: hTERT-HME1 cells carrying BRAF (V600E) KI; assay: Drug assay: cell viability by ATP content (96 h), KI versus parental cells; ΔKI pharmarray analysis; conditions: for pharmarray: differential response of BRAF mutated cells versus WT: hTERT-HME1, FIG. 5H
[2] = system: hTERT-HME1 cells carrying KRAS (G13D) KI; assay: as above
[3] = system: hTERT-HME1 cells carrying PIK3CA (E545K and H1047R) KI; assay: Drug assay: cell viability by ATP content (96 h) and Hoechst/propidium iodide staining, KI versus parental cells; ΔKI pharmarray analysis
[4] = system: hTERT-HME1 DKI cells carrying PIK3CA (H1047R) and EGFR (delE746-A750); assay: Drug assay: cell viability by ATP content (96 h), DKI versus parental cells; ΔKI pharmarray analysis
[5] = system: hTERT-HME1 cells carrying EGFR (delE746-A750) KI; assay: Drug assay: cell viability by ATP content (CellTiter-Glo, 96 h), KI versus parental cells; ΔKI pharmarray analysis

CC/C(=C(\c1ccc(O)cc1)c1ccc(OCCN(C)C)cc1)c1ccccc1 [Tamoxifen 4-Hydroxy-(Z)]
ΔKI BRAF [1]: 0 | ΔKI KRAS [2]: 0

CCCCC/C=C\C/C=C\C/C=C\C/C=C\CCCC(=O)Nc1ccc(O)cc1 [AM404]
ΔKI PIK3CA [3]: 0 | ΔKI PIK3CA ([3]; Log(M) −4.70): 0 | ΔKI BRAF [1]: −0.12 | ΔKI BRAF ([1]; Log(M) −4.70): −1.68 | ΔKI PIK3CA + EGFR [4]: 0 | ΔKI PIK3CA + EGFR ([4]; Log(M) −4.70): 0 | ΔKI EGFR [5]: 0 | ΔKI EGFR ([5]; Log(M) −4.70): 0 | ΔKI KRAS [2]: 0 | ΔKI KRAS ([2]; Log(M) −4.70): 0

COC(=O)C1=CC[C@@]23CC[C@@H]([C@@](C)(/C=C/C=C(\C)C(=O)O)OC2=O)[C@@]3(OC(C)=O)CC1 [Pseudolaric Acid B]
ΔKI PIK3CA [3]: 0 | ΔKI PIK3CA ([3]; Log(M) −6.48): 0 | ΔKI BRAF ([1]; Log(M) −6.48): 0 | ΔKI PIK3CA + EGFR ([4]; Log(M) −6.48): 0.54 | ΔKI EGFR [5]: 0 | ΔKI EGFR ([5]; Log(M) −6.48): 0 | ΔKI KRAS [2]: 0 | ΔKI KRAS ([2]; Log(M) −6.48): 0

COc1ccc(-c2cc(=O)c3c(O)c(OC)c(O)cc3o2)cc1OC [Eupatiline]
ΔKI PIK3CA [3]: −1.66 | ΔKI PIK3CA ([3]; Log(M) −3.97): 0 | ΔKI BRAF [1]: −0.1 | ΔKI BRAF ([1]; Log(M) −3.97): 2.9 | ΔKI PIK3CA + EGFR [4]: 0 | ΔKI PIK3CA + EGFR ([4]; Log(M) −3.97): 0 | ΔKI EGFR [5]: 0 | ΔKI EGFR ([5]; Log(M) −3.97): 0 | ΔKI KRAS [2]: 0 | ΔKI KRAS ([2]; Log(M) −3.97): 0

CC[C@H](C)C(=O)O[C@H]1CCC=C2C=C[C@H](C)[C@H](CC[C@@H]3C[C@@H](O)CC(=O)O3)[C@H]21 [mevastatin, Mevastatin]
pharmarray: differential response of BRAF mutated cells versus WT [1]: more resistant

Tamoxifene Citrate
ΔKI PIK3CA ([3]; Log(M) −4.75): 0 | ΔKI PIK3CA ([3]; Log(M) −5.35): 0.9 | ΔKI BRAF [1]: 0 | ΔKI BRAF ([1]; Log(M) −4.75): 0 | ΔKI BRAF ([1]; Log(M) −5.35): 0 | ΔKI PIK3CA + EGFR [4]: 0.96 and 0.78 | ΔKI PIK3CA + EGFR ([4]; Log(M) −4.75): 0 | ΔKI PIK3CA + EGFR ([4]; Log(M) −5.35): −0.92 | ΔKI EGFR [5]: 0 | ΔKI EGFR ([5]; Log(M) −4.75): 0 | ΔKI EGFR ([5]; Log(M) −5.35): −0.54 | ΔKI KRAS [2]: 0 | ΔKI KRAS ([2]; Log(M) −4.75): 0 | ΔKI KRAS ([2]; Log(M) −5.35): 0

CC[C@H](C)C(=O)O[C@H]1C[C@H](O)C=C2C=C[C@H](C)[C@H](CC[C@@H](O)C[C@@H](O)CC(=O)[O-])[C@H]21.[Na+] [Pravastatin Na]
ΔKI PIK3CA ([3]; Log(M) −4.32): 0 | ΔKI PIK3CA ([3]; Log(M) −5.52): 0 | ΔKI BRAF ([1]; Log(M) −4.32): 0 | ΔKI BRAF ([1]; Log(M) −4.92): 0 | ΔKI BRAF ([1]; Log(M) −5.52): 0 | ΔKI PIK3CA + EGFR ([4]; Log(M) −4.32): 0 | ΔKI PIK3CA + EGFR ([4]; Log(M) −4.92): 0 | ΔKI PIK3CA + EGFR ([4]; Log(M) −5.52): 0 | ΔKI EGFR ([5]; Log(M) −4.32): 0 | ΔKI EGFR ([5]; Log(M) −4.92): 0 | ΔKI EGFR ([5]; Log(M) −5.52): 0 | ΔKI KRAS ([2]; Log(M) −4.32): 0 | ΔKI KRAS ([2]; Log(M) −4.92): 0 | ΔKI KRAS ([2]; Log(M) −5.52): 0

N.N.[Cl][Pt][Cl] [Cisplatin]
ΔKI PIK3CA ([3]; Log(M) −4.70): 0 | ΔKI PIK3CA ([3]; Log(M) −5.00): 0 | ΔKI PIK3CA ([3]; Log(M) −5.70): 0 | ΔKI PIK3CA ([3]; Log(M) −6.00): 0 | ΔKI PIK3CA ([3]; Log(M) −6.70): 0 | ΔKI PIK3CA ([3]; Log(M) −7.00): 0 | ΔKI BRAF ([1]; Log(M) −4.70): 3.82 | ΔKI BRAF ([1]; Log(M) −5.00): 0 | ΔKI BRAF ([1]; Log(M) −5.70): 7.62 | ΔKI BRAF ([1]; Log(M) −6.00): 0 | ΔKI BRAF ([1]; Log(M) −6.70): 0 | ΔKI BRAF ([1]; Log(M) −7.00): 0 | ΔKI PIK3CA + EGFR ([4]; Log(M) −4.70): 0 | ΔKI PIK3CA + EGFR ([4]; Log(M) −5.00): 4.9 | ΔKI PIK3CA + EGFR ([4]; Log(M) −5.70): 2.16 | ΔKI PIK3CA + EGFR ([4]; Log(M) −6.00): 0.7 | ΔKI PIK3CA + EGFR ([4]; Log(M) −6.70): 0 | ΔKI PIK3CA + EGFR ([4]; Log(M) −7.00): −1.32 | ΔKI EGFR ([5]; Log(M) −4.70): 0 | ΔKI EGFR ([5]; Log(M) −5.00): 4.84 | ΔKI EGFR ([5]; Log(M) −5.70): 0 | ΔKI EGFR ([5]; Log(M) −6.00): 0 | ΔKI EGFR ([5]; Log(M) −6.70): 0 | ΔKI EGFR ([5]; Log(M) −7.00): 0 | ΔKI KRAS ([2]; Log(M) −4.70): 0 | ΔKI KRAS ([2]; Log(M) −5.00): 0 | ΔKI KRAS ([2]; Log(M) −5.70): 0 | ΔKI KRAS ([2]; Log(M) −6.00): 0 | ΔKI KRAS ([2]; Log(M) −6.70): 0 | ΔKI KRAS ([2]; Log(M) −7.00): 0

COc1ccc2c(c1)c(CC(=O)O)c(C)n2C(=O)c1ccc(Cl)cc1 [indomethacin, Indomethacin]
extended analysis of effect on PIK3CA KI versus WT cells (viability, apoptosis) ([3]; hTERT-HME1, 96 h, ATP assay, Hoechst/propidium iodide, FIG. 19): acts preferentially on cells carrying the PIK3CA mutation with both anti-proliferative and pro-apoptotic effects | pharmarray: differential response of PIK3CA mutated cells versus WT ([3]; hTERT-HME1, FIG. 5G): unexpectedly active on PIK3CA mutated cells

CC[C@H](C)C(=O)O[C@H]1C[C@@H](C)C=C2C=C[C@H](C)[C@H](CC[C@@H]3C[C@@H](O)CC(=O)O3)[C@H]21 [lovastatin, Lovastatin]
pharmarray: differential response of BRAF mutated cells versus WT [1]: more resistant
